According to the NIST ThermoML archive (doi:10.1016/j.jct.2016.02.026):
± gives the expanded uncertainty stated by the source.

Assays:
[1] = Liquid; for mass density: 303.15 K, 91.2 kPa, Vibrating tube method; for vapor or sublimation pressure: Ebulliometric method (Recirculating still)
[2] = wn = mass fraction of the nth substance listed; conditions: 303.15 K, 91.2 kPa, Liquid, Vibrating tube method

## O [water]
[1]
  mass density: 996 ± 2 kg/m3
[1]; 327.65 K
  vapor or sublimation pressure: 15.32 ± 0.9 kPa
[1]; 337.15 K
  vapor or sublimation pressure: 23.61 ± 0.97 kPa
[1]; 341.35 K
  vapor or sublimation pressure: 28.46 ± 1.4 kPa
[1]; 344.45 K
  vapor or sublimation pressure: 33.81 ± 1.5 kPa
[1]; 348.05 K
  vapor or sublimation pressure: 38.36 ± 1.5 kPa
[1]; 351.55 K
  vapor or sublimation pressure: 44.42 ± 1.9 kPa
[1]; 355.75 K
  vapor or sublimation pressure: 52.9 ± 1.9 kPa
[1]; 358.05 K
  vapor or sublimation pressure: 56.84 ± 2.4 kPa
[1]; 361.85 K
  vapor or sublimation pressure: 67.25 ± 2.7 kPa
[1]; 365.65 K
  vapor or sublimation pressure: 77.55 ± 3 kPa
[1]; 370.05 K
  vapor or sublimation pressure: 91.59 ± 3.2 kPa

## [Cl-].[Na+] [sodium chloride] + CCO
[2]; w1 = 0.00041
  mass density: 788 ± 2 kg/m3

## O [water] + [Cl-].[K+]
[2]; w2 = 0
  mass density: 996 ± 2 kg/m3

## OCC(O)CO [glycerol]
[1]
  mass density: 1255 ± 3 kg/m3

## O [water] + [Cl-].[Na+]
[2]; w2 = 0
  mass density: 996 ± 2 kg/m3

## OCC(O)CO [glycerol] + O
[2]; w1 = 0.1159
  mass density: 1022 ± 2 kg/m3
[2]; w1 = 0.2056
  mass density: 1044 ± 2 kg/m3
[2]; w1 = 0.3521
  mass density: 1080 ± 2 kg/m3
[2]; w1 = 0.4646
  mass density: 1108 ± 2 kg/m3
[2]; w1 = 0.5524
  mass density: 1133 ± 2 kg/m3
[2]; w1 = 1
  mass density: 1255 ± 3 kg/m3

## O [water] + OCC(O)CO
[2]; w2 = 0
  mass density: 996 ± 2 kg/m3

## OCC(O)CO [glycerol] + CCO
[2]; w1 = 0.1529
  mass density: 835 ± 2 kg/m3
[2]; w1 = 0.2901
  mass density: 888 ± 2 kg/m3
[2]; w1 = 0.4124
  mass density: 939 ± 2 kg/m3
[2]; w1 = 0.5159
  mass density: 985 ± 2 kg/m3
[2]; w1 = 0.6211
  mass density: 1036 ± 2 kg/m3
[2]; w1 = 0.7096
  mass density: 1084 ± 2 kg/m3
[2]; w1 = 0.7971
  mass density: 1136 ± 2 kg/m3
[2]; w1 = 0.869
  mass density: 1174 ± 3 kg/m3
[2]; w1 = 0.9357
  mass density: 1215 ± 3 kg/m3
[2]; w1 = 1
  mass density: 1255 ± 3 kg/m3

## [Cl-].[Na+] [sodium chloride] + O
[2]; w1 = 0.0318
  mass density: 1018 ± 2 kg/m3
[2]; w1 = 0.0654
  mass density: 1042 ± 2 kg/m3
[2]; w1 = 0.067
  mass density: 1043 ± 2 kg/m3
[2]; w1 = 0.0949
  mass density: 1063 ± 2 kg/m3
[2]; w1 = 0.0974
  mass density: 1065 ± 2 kg/m3
[2]; w1 = 0.1232
  mass density: 1084 ± 2 kg/m3
[2]; w1 = 0.1259
  mass density: 1086 ± 2 kg/m3
[2]; w1 = 0.1578
  mass density: 1110 ± 2 kg/m3
[2]; w1 = 0.1772
  mass density: 1125 ± 2 kg/m3
[2]; w1 = 0.2013
  mass density: 1144 ± 3 kg/m3
[2]; w1 = 0.225
  mass density: 1163 ± 3 kg/m3
[2]; w1 = 0.244
  mass density: 1178 ± 3 kg/m3
[2]; w1 = 0.2672
  mass density: 1195 ± 3 kg/m3

## CCO [ethanol] + [Cl-].[Na+]
[2]; w2 = 0
  mass density: 781 ± 2 kg/m3

## [Cl-].[K+] [potassium chloride] + O
[2]; w1 = 0.0344
  mass density: 1017 ± 2 kg/m3
[2]; w1 = 0.053
  mass density: 1029 ± 2 kg/m3
[2]; w1 = 0.067
  mass density: 1038 ± 2 kg/m3
[2]; w1 = 0.0975
  mass density: 1058 ± 2 kg/m3
[2]; w1 = 0.1259
  mass density: 1077 ± 2 kg/m3
[2]; w1 = 0.1526
  mass density: 1095 ± 2 kg/m3
[2]; w1 = 0.1779
  mass density: 1113 ± 2 kg/m3
[2]; w1 = 0.2009
  mass density: 1129 ± 2 kg/m3
[2]; w1 = 0.2117
  mass density: 1137 ± 3 kg/m3
[2]; w1 = 0.2156
  mass density: 1140 ± 2 kg/m3
[2]; w1 = 0.2448
  mass density: 1161 ± 3 kg/m3
[2]; w1 = 0.2645
  mass density: 1176 ± 3 kg/m3

## CCO [ethanol]
[1]
  mass density: 781 ± 2 kg/m3

## CCO [ethanol] + OCC(O)CO
[2]; w2 = 0
  mass density: 781 ± 2 kg/m3
